Results: patent publication EP0055716B1, “AMPLIFIED ANTIBIOTIC AND ANTITUMOR AGENTS” (priority 1980, dated 1982)

Key:
Ehrlich's Ascites Tumor = assay: Survival of mice with Ehrlich's ascites tumor, amide with or without amplifier; format: in vivo; conditions: for T/C (1): control saline vehicle only
[1] = system: Walker 256 carcinoma Sarcoma; assay: Survival of rats with Walker 256 ascites tumour, amide with or without amplifier; format: in vivo, Sprague Dawley rats; conditions: for T/C (1): control saline vehicle only
Description: This was given two 2-minute treatments with Boyle's fluid (9 vols. 0.83% NH4CI, 1 vol. Tris buffer, pH7.2). The cell suspension was counted on a haemocytometer using Turk's fluid and then diluted with Eagle's medium to 10^7 live cells per ml, and then 0.1 ml was injected intraperitoneally. Bacto-fluid Thiolglycollate Medium was used to test for contamination. Solutions of the phleomycins, bleomycins or tallysomycins were made up in phosphate-buffered saline at pH7.2 in daily doses at the commencement of each 5 day injection period and were kept frozen until the commencement of each day's injections. The injections were given at 9 a.m. and 4 p.m. […] Test groups usually comprised 7 or 8 animals.

Mouse Sarcoma 180 = assay: Survival of mice with Sarcoma 180, amide with or without amplifier; format: in vivo; conditions: i.p.; for T/C (1): control saline vehicle only
[2] = Exp 2C, i.p., amplifier alone 675 uKD
[3] = Exp 2C, i.p., amplifier alone 2025 uKD
[4] = Exp 1C, amplifier alone 675 uKD
[5] = Exp 1E, amplifier alone 675 uKD
[6] = Exp 3B, amplifier alone 675 uKD
[7] = Exp 3C, amplifier alone 675 uKD
[8] = Exp 2A, i.p., amplifier alone 10.61 uKD
[9] = Exp 2A, i.p., amplifier alone 106.1 uKD
[10] = Exp 2B, amplifier alone 10.61 uKD in drinking water
[11] = Exp 2B, amplifier alone 106.1 uKD in drinking water
[12] = Exp 2B, amplifier alone 1061 uKD in drinking water
[13] = Exp 1A, amplifier alone 10.61 uKD
[14] = Exp 1A, amplifier alone 106.1 uKD
[15] = Exp 1B, amplifier alone 10.61 uKD
[16] = Exp 1B, amplifier alone 1061 uKD
[17] = Exp 1D, amplifier alone 10.61 uKD in minipumps
[18] = Exp 1D, amplifier alone 106.1 uKD in minipumps
[19] = Exp 3A, amplifier alone 1942 uKD

Dimethylthiocyanine
M.S.T. (Ehrlich's Ascites Tumor; [2]): 20.0 days | T/C (1) (Ehrlich's Ascites Tumor; [2]): 111 | M.S.T. (Ehrlich's Ascites Tumor; [3]): 20.0 days | T/C (1) (Ehrlich's Ascites Tumor; [3]): 111 | M.S.T. [1, 4]: 9.0 days | T/C (1) [1, 4]: 112 | M.S.T. [1, 5]: 6.0 days | T/C (1) [1, 5]: 100 | M.S.T. (Mouse Sarcoma 180; [6]): 17.0 days | T/C (1) (Mouse Sarcoma 180; [6]): 100 | M.S.T. (Mouse Sarcoma 180; [7]): 17.0 days | T/C (1) (Mouse Sarcoma 180; [7]): 100

Cn1c(=O)c2c(ncn2C)n(C)c1=O [Caffeine, 1, 3, 7 trimethyl xanthene]
M.S.T. (Ehrlich's Ascites Tumor; [8]): 21.0 days | T/C (1) (Ehrlich's Ascites Tumor; [8]): 93 | M.S.T. (Ehrlich's Ascites Tumor; [9]): 21.0 days | T/C (1) (Ehrlich's Ascites Tumor; [9]): 93 | M.S.T. (Ehrlich's Ascites Tumor; [10]): 22.0 days | T/C (1) (Ehrlich's Ascites Tumor; [10]): 119 | M.S.T. (Ehrlich's Ascites Tumor; [11]): 21.0 days | T/C (1) (Ehrlich's Ascites Tumor; [11]): 113 | M.S.T. (Ehrlich's Ascites Tumor; [12]): 20.0 days | T/C (1) (Ehrlich's Ascites Tumor; [12]): 108 | M.S.T. [1, 13]: 8.0 days | T/C (1) [1, 13]: 89 | M.S.T. [1, 14]: 8.0 days | T/C (1) [1, 14]: 89 | M.S.T. [1, 15]: 7.0 days | T/C (1) [1, 15]: 93 | M.S.T. [1, 16]: 8.0 days | T/C (1) [1, 16]: 107 | M.S.T. [1, 17]: 10.0 days | T/C (1) [1, 17]: 95 | M.S.T. [1, 18]: 10.0 days | T/C (1) [1, 18]: 95 | M.S.T. (Mouse Sarcoma 180; [19]): 17.0 days | T/C (1) (Mouse Sarcoma 180; [19]): 106
